This is an account of results in the METLIN SMRT retention time set (Domingo-Almenara et al. 2019).

A short description of the data set: gradient 5% acetonitrile 3 min, to 50% in 2 min, to 85% in 15 min, held 3 min, 100 µL/min. Particulars: column: Zorbax Extend-C18 2.1 x 50 mm; eluents: water / acetonitrile, 0.1% formic acid. In a few lines:
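Retention time was recorded from adduct peaks, which were picked computationally and each inspected manually. Pure standards ran in mixtures of ~100 molecules on HPLC coupled to a quadrupole time-of-flight mass spectrometer, in positive and negative ionization mode, through a Zorbax Extend-C18 column (2.1 × 50 mm, 1.8 μm) at 100 μL/min. Eluents were water and acetonitrile, each with 0.1% formic acid.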
As for `CCCNC(=O)c1ccc2cnn(C)c2c1`, the RP-LC retention time was 673 s.

Consider `CCOc1ccc(-c2cc3c(=O)n(Cc4nc(-c5ccc(C)cc5)no4)ccn3n2)cc1`, for which the RP-LC retention time is 1160 s.

For the molecule `CCc1ccc(NC(=O)Cc2nnc3c(-c4nc(C5CC5)no4)cccn23)cc1`, the RP-LC retention time is 805 s.

As for `O=C(NC1CCCCC1)c1cc2n(n1)CCCN(Cc1ccccc1)C2=O`, the RP-LC retention time came to 891 s.

Molecule `O=C(c1nc2ncccn2n1)N1CCCn2cc(-c3ccccc3)nc21` yielded an RP-LC retention time of 595 s.

In the case of `CCN(Cc1ccc(Cl)cc1)Cc1cc(=O)n2ccccc2n1`, the RP-LC retention time is 615 s.

Take `O=C(c1ccoc1)N1CCc2cc(-c3csc(C4CC4)n3)ccc21`: the RP-LC retention time was found to be 1060 s.

In turn, `CC(NC(=O)Cn1cc(C#N)c2ccccc21)c1ccc2c(c1)OCCCO2` (stereo not given) yielded an RP-LC retention time of 881 s.

Take `CCN(CC)c1cc(CNC(=O)Nc2cc(Cl)ccc2OC)ccn1`: the RP-LC retention time worked out at 690 s.

For the molecule `COc1ccc(NC(=O)Cn2c(=O)n(-c3ccc(F)cc3)c(=O)c3c2cc(C)n3C)c(OC)c1`, the RP-LC retention time came out at 832 s.

Consider `COc1c(C(=O)Nc2ccc3c(c2)OCO3)sc2ccc(Cl)cc12`, for which the RP-LC retention time was 1180 s.

The molecule `O=C(Nc1nnc(C2CC(=O)N(c3ccccc3)C2)o1)c1ccc(F)cc1` (stereo not given) showed an RP-LC retention time of 708 s.

In turn, `O=S(=O)(c1cccs1)N1CCCCC1c1nncn1CC1CC1` (stereo not given) displayed an RP-LC retention time of 752 s.

As for `Cc1ccc(OCC(=O)N2C[C@@H]3C[C@H]2C[C@@H]3NS(=O)(=O)c2ccccc2)cc1`, the RP-LC retention time worked out at 764 s.

`COc1ccc(OC)c(CNC(=O)C2CCN(c3nnc(-c4ccccc4)o3)CC2)c1` came in with an RP-LC retention time of 797 s.

For `Cc1ncc2c(SCC(=O)Nc3ccc(Br)cc3)ncnc2n1`, the RP-LC retention time was 578 s.

On to `Cc1cccc(-c2noc(Cn3cnc4c(oc5ccccc54)c3=O)n2)c1`, for which the RP-LC retention time was found to be 996 s.

Turning to `Cc1cnc(C(=O)N2CC(c3nc(CCOC4CCCC4)no3)C2)cn1`, the RP-LC retention time stood at 777 s.

`COc1cccc(CNC(=O)C2(C)CCCN(C(=O)Nc3cccc(C)c3C)C2)c1` (stereo not given): the RP-LC retention time stood at 855 s.

The molecule `Cc1nc(-c2cnccn2)n(CC(=O)Nc2ccc3c(c2)OCCO3)c(=O)c1C` came in with an RP-LC retention time of 688 s.

Take `Cc1cc2nn(CC(=O)Nc3ccc4c(c3)OCCO4)c(=O)n2c(Nc2ccccc2C)n1`: the RP-LC retention time amounted to 908 s.

On to `CCN(CC)c1ccc(NC(=O)c2nc3nc(C)cc(C(F)F)n3n2)cc1`, for which the RP-LC retention time worked out at 598 s.

Molecule `O=C(NCc1ccc(N2CCCC2)nc1)c1cccc(Br)c1` displayed an RP-LC retention time of 646 s.

Take `CNC(=O)CCC(=O)N1c2ccccc2NC2=C(C(=O)CC(C)(C)C2)C1c1ccccc1` (stereo not given): the RP-LC retention time was found to be 686 s.

For the molecule `CCN(CC)CCCNC(=O)CN1C(=O)C2CCCCN2c2ccc(C(=O)N(C)C)cc21` (stereo not given), the RP-LC retention time worked out at 595 s.

For the molecule `O=c1c2cc(-c3ccc(F)cc3)nn2ccn1Cc1ccc(Cl)cc1`, the RP-LC retention time is 1090 s.

For `Cc1ccc(CNC(=O)c2c(OCC(C)C)cc(=O)n3c2CCCCC3)o1`, the RP-LC retention time came to 786 s.

`COCCn1cc(CCNC(=O)Nc2cc(Cl)ccc2C)c2cccnc21` came in with an RP-LC retention time of 795 s.

`O=C(NC1CC1)c1ccc(N2CCC(NCc3ccc(Cl)cc3)C2)nc1` (stereo not given) had an RP-LC retention time of 574 s.

In the case of `CC(C)S(=O)(=O)Nc1ccc2c(c1)CN(C(=O)c1ccco1)CC2`, the RP-LC retention time came to 685 s.

Consider `Cc1nn(C)c(C)c1S(=O)(=O)N1CCC(Cc2nc(-c3cccnc3)n[nH]2)C1` (stereo not given), for which the RP-LC retention time came out at 598 s.

Consider `CC(C)CCNC(=O)c1ccc(-c2nc3cccnc3n2C2CCCCC2)cc1`, for which the RP-LC retention time was found to be 1020 s.

Molecule `CCCn1ccc2oc(C)c(C(=O)NC(C)c3ccc(F)cc3)c2c1=O` (stereo not given) gave an RP-LC retention time of 1040 s.

`CCOC(=O)C1CCCN(Cc2cn3cc(F)ccc3n2)C1` (stereo not given) returned an RP-LC retention time of 559 s.

In turn, `Cc1ccc(CNC(=O)CN2C(=O)C3CCCCN3c3ccc(S(=O)(=O)N4CCCC4)cc32)o1` (stereo not given) came in with an RP-LC retention time of 905 s.

`O=C(NC1CCOCC1)c1ccc(-c2cc(-c3cn[nH]c3-c3ccccn3)ccn2)cc1` showed an RP-LC retention time of 617 s.

`COC(=O)c1[nH]c(C)c(CN(C)C(=O)c2ccc(Br)cc2)c1C` showed an RP-LC retention time of 876 s.

`CC(C)(C)c1cc(C(=O)NCc2ccccc2)nc2ccnn12`: the RP-LC retention time turned out to be 1140 s.

For the molecule `CCN1CCC2(CC1)OC(=O)C(C)=C2C(=O)NCCc1ccc(Cl)cc1`, the RP-LC retention time amounted to 653 s.

In turn, `O=C(NCC1CCCCC1)C1CCN(C(=O)c2ncn3c2COC(c2ccc(Cl)cc2)C3)CC1` (stereo not given) gave an RP-LC retention time of 830 s.

In turn, `Cc1cccc(-c2noc(Cn3c(=O)n(-c4ccc(Cl)cc4)c(=O)c4sccc43)n2)c1` came in with an RP-LC retention time of 1100 s.

Molecule `O=C(C1CC1)N1CCCN(c2ccc([N+](=O)[O-])cc2)CC1` had an RP-LC retention time of 688 s.

Molecule `Cc1nc(N2CCN(C(=O)COc3ccc(Cl)cc3Cl)CC2)cc(-n2cccn2)n1` showed an RP-LC retention time of 894 s.

`Cc1noc(C)c1CCC(=O)N1CCC(c2nc(C3CC3)n[nH]2)CC1` had an RP-LC retention time of 564 s.

`Nc1cc(C2CCN(C(=O)Nc3ccccc3F)CC2)no1` gave an RP-LC retention time of 649 s.

`CN(C)CC1(O)CCC2(CCN(C(=O)CCC3CCCC3)CC2)CC1` had an RP-LC retention time of 639 s.

Take `CCSc1nc2ccc(NS(=O)(=O)c3cccc(F)c3)cc2s1`: the RP-LC retention time came out at 998 s.

In turn, `CC(C)n1c(=O)c(NCc2ccccc2Cl)nc2ccncc21` yielded an RP-LC retention time of 596 s.

The molecule `O=C(NCCN1CCCCCC1)c1nc(-c2ccnc(N3CCCCC3)c2)no1` gave an RP-LC retention time of 577 s.

For the molecule `CCn1cc(C(=O)NCC2CC2)c(S(=O)(=O)N2CCSCC2)n1`, the RP-LC retention time worked out at 817 s.

For `CCCN(Cc1ccc(OC)c(OC)c1)Cc1cc(=O)n2cc(C)ccc2n1`, the RP-LC retention time turned out to be 611 s.

As to `Cc1ccc(NS(=O)(=O)c2cc(-c3[nH]ncc3C(=O)N3CCOCC3)oc2C)cc1`, the RP-LC retention time came to 695 s.

`CCC(=O)N1CCCCCNC(=O)[C@@H]2CCC[C@@H]21` gave an RP-LC retention time of 621 s.

`O=C(Cn1cccn1)N1CCN(c2ncccn2)CC1` displayed an RP-LC retention time of 567 s.

Consider `O=C(Nc1ccc(-c2nc(-c3ccccc3)no2)cc1)C1CC(=O)N(c2ccccc2)C1` (stereo not given), for which the RP-LC retention time worked out at 1030 s.

`CCn1nnc(NCc2ccc(-c3ccc(C)c(Cl)c3)o2)n1` registered an RP-LC retention time of 1090 s.

In turn, `Cc1ccc(C)c(N2CCN(C(=O)Cn3c(=O)c4nncn4c4ncccc43)CC2)c1` came in with an RP-LC retention time of 790 s.

`Cc1nc2cc3c(cc2n1CC(=O)NCc1ccc2c(c1)OCCCO2)OCCO3` displayed an RP-LC retention time of 615 s.

The molecule `CCOC(=O)c1c(C)oc2nc(C)nc(NCCc3ccc(OCC)cc3)c12` returned an RP-LC retention time of 1270 s.

As for `COc1cccc(CNC(=O)C2CCN(S(=O)(=O)c3ccc4c(c3)CCCC(=O)N4)CC2)c1`, the RP-LC retention time stood at 713 s.
